# Results reported in patent US20090325956A1, “Aromatic amine derivative and use thereof” (priority 2006, published 2009).
# Counter-ions that a name gives are not always drawn.
# Molecular target: T1, SCD (rat liver microsome) (Rattus norvegicus, UniProt P07308)
# T1 construct: an enzyme reaction using rat liver microsome (20 μg) was performed for 15 min; from tissue; host or cells: rat liver microsome fraction
# T1 sequence (P07308 1-358): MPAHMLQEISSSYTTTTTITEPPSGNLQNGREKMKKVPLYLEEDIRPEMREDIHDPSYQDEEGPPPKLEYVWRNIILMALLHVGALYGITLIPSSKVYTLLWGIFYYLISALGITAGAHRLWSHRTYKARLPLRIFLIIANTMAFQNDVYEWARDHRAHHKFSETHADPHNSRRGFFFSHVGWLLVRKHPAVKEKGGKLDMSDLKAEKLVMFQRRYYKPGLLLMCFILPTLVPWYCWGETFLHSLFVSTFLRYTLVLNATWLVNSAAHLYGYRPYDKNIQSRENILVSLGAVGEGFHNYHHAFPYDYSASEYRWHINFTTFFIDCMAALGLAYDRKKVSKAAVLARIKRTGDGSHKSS
# Assay: Measurement of SCD inhibitory activity using microsome (TLC detection system)
# Assay type: biochemical
# Details: test compound 10 μM, rat liver microsome (20 μg), [14C] stearoyl-CoA, 15 min; for inhibition at 10 µM: read-out: SCD activity inhibitory rate (%)
# Description: “Test Method” Measurement of SCD Inhibitory Activity Using Microsome (TLC Detection System)
# A test compound (10 mM) diluted with DMSO in advance was secondarily diluted to 3/1000 with 3× buffer (300 mmol/L NaH2PO4 [pH 7.4], 450 mM KCl, 30 mM NaF, 9 mM MgCl2, 4.5 mM glutathione [reduced form], 0.3% BSA [fatty acid free, SIGMA]). The test compound (10 μL) diluted with the assay buffer was dispensed to a PP 96-deep well block, and a microsome fraction (10 μL) diluted with a microsome buffer was added thereto. The enzyme reaction was started by the addition of 10 μL of [^14C] stearoyl-CoA (American Radiolabeled Chemicals [ARC], Inc.) diluted to 10 μCi/mL with 9 mmol/L NADH. For evaluation of the compound, an enzyme reaction using rat liver microsome (20 μg) was performed for 15 min. The reaction was quenched by the addition of 10 μL of 2.5N NaOH, a plate seal was applied, and the reaction mixture was incubated overnight in a dry heater set to 65° C. to allow saponification. Solvent extraction of fatty acid was based on the Bligh&Dyer method (1). Formic acid:methanol:chloroform (1:6:3) (200 μL) was added, the state of single layer was maintained, the mixture was sufficiently stirred, and pure water (120 μL) was added to allow separation into two layers. The lower chloroform layer (10 μL) was spotted on reversed-phase TLC plate (RP-18, 1154230001, Merck Japan, Ltd.) and developed with acetonitrile:pure water:acetic acid (95:4.5:0.5). The TLC plate was dried and transferred onto an Imaging Plate (Fuji Photo Film Co., Ltd.) for not less than 5 hr. For detection, BAS-5000 (Fuji Photo Film Co., Ltd) was used and the obtained spot images were converted to numerical values using Multi Gauge Ver2.3 (Fuji Photo Film Co., Ltd), based on which the SCD activity inhibitory rate (%) was determined.
Structure (SMILES),inhibition at 10 µM,SCD activity inhibitory rate (%)
"O=C(Nc1cnn(Cc2ccc(F)cc2)c1)c1ccc(Cn2cnc3ccccc32)cc1 [Example 99, 4-(1H-benzimidazol-1-ylmethyl)-N-[1-(4-fluorobenzyl)-1H-pyrazol-4-yl]benzamide]",93%,–
"Cc1nn(Cc2ccccc2)c2sc(C(=O)Nc3ccc(Cn4cccn4)cc3)cc12 [Example 118, 1-benzyl-3-methyl-N-[4-(1H-pyrazol-1-ylmethyl)phenyl]-1H-thieno[2,3-c]pyrazole-5-carboxamide]",86%,–
"O=C(Nc1cnn(Cc2ccc(F)cc2)c1)c1cccc(COc2ccccc2)c1 [Example 149, N-[1-(4-fluorobenzyl)-1H-pyrazol-4-yl]-3-(phenoxymethyl)benzamide]",97%,–
"O=C(Nc1cnn(Cc2ccc(F)cc2)c1)c1cccc(CNc2ccccc2Cl)c1 [Example 201, 3-{[(2-chlorophenyl)amino]methyl}-N-[1-(4-fluorobenzyl)-1H-pyrazol-4-yl]benzamide]",99%,–
"CCc1cccc(NC(=O)N2CCOC(COc3cc(F)ccc3Cl)C2)n1 (centres unmarked) [Example 202, 2-[(2-chloro-5-fluorophenoxy)methyl]-N-(6-ethylpyridin-2-yl) morpholine-4-carboxamide]",–,92%
"O=C(Nc1ccc(CO)cn1)N1CCOC(COc2cc(F)ccc2Cl)C1 (centres unmarked) [Example 212, 2-[(2-chloro-5-fluorophenoxy)methyl]-N-[5-(hydroxymethyl)pyridin-2-yl]morpholine-4-carboxamide]",97%,–
"CN(Cc1cccc(C(=O)Nc2cnn(Cc3ccc(F)cc3)c2)c1)c1ccccc1Cl [Example 225, 3-{[(2-chlorophenyl)(methyl)amino]methyl}-N-[1-(4-fluorobenzyl)-1H-pyrazol-4-yl]benzamide]",93%,–

# Results, then the compound that gave them:
inhibition at 10 µM,SCD activity inhibitory rate (%),Structure (SMILES)
88%,–,"Cc1cc(C)nc(NC(=O)N2CCOC(COc3ccccc3F)C2)c1 (centres unmarked) [Example 59, N-(4,6-dimethylpyridin-2-yl)-2-[(2-fluorophenoxy)methyl]morpholine-4-carboxamide trifluoroacetate]"
83%,–,"NC(=O)c1ccsc1NC(=O)c1cccc(COc2cc(Cl)ccc2Cl)c1 [Example 93, 2-({3-[(2,5-dichlorophenoxy)methyl]benzoyl}amino)thiophene-3-carboxamide]"
97%,–,"Cc1cc(C)nc(NC(=O)c2ccc(Cn3cnc4ccccc43)cc2)c1 [Example 108, 4-(1H-benzimidazol-1-ylmethyl)-N-(4,6-dimethylpyridin-2-yl)benzamide]"
86%,–,"Cc1cc(C)nc(NC(=O)c2cc(COc3cc(Cl)ccc3Cl)ccn2)c1 [Example 113, 4-[(2,5-dichlorophenoxy)methyl]-N-(4,6-dimethylpyridin-2-yl)pyridine-2-carboxamide]"
100%,–,"O=C(Nc1ccc(Cn2cccn2)cc1)c1ccnc(COc2cc(Cl)ccc2Cl)c1 [Example 116, 2-[(2,5-dichlorophenoxy)methyl]-N-[4-(1H-pyrazol-1-ylmethyl)phenyl]isonicotinamide]"
85%,–,"O=C(Nc1ccc(Cn2cccn2)cc1)N1CCCC(COc2cc(Cl)ccc2Cl)C1 (centres unmarked) [Example 167, 3-[(2,5-dichlorophenoxy)methyl]-N-[4-(1H-pyrazol-1-ylmethyl)phenyl]piperidine-1-carboxamide]"
88%,–,"O=C(Nc1cnn(CCO)c1)c1cc(COc2ccccc2Cl)ccn1 [Example 169, 4-[(2-chlorophenoxy)methyl]-N-[1-(2-hydroxyethyl)-1H-pyrazol-4-yl]pyridine-2-carboxamide]"
